Key:
RAW264.7 cells [1] = assay: Cellular uptake and trafficking by Mφ in vitro (CLSM); assay type: cell-based, murine; settings: 10 μg/mL DOX
Procedure: To investigate whether the oral pharmaceutical composition of the present disclosure can be phagocytosed and carried by Mφ, the cellular uptake and trafficking of free DOX, Comparative Example or Example 1 by Mφ in vitro are observed first. RAW264.7 cells, a murine Mφ cell line, are seeded in an eight-well chamber slide (ibidi) at a density of 5×10^4 cells per well and incubated overnight. The cells are then treated with each of the test samples at an equivalent dose of DOX (10 μg/mL). Following incubation for pre-determined periods (0, 2, 4, and 6 hours), test cells are washed with Dulbecco's phosphate-buffered saline (DPBS) and stained with LysoTracker™ Deep Red (Invitrogen) and Hoechst 33342 (Abcam) for 30 minutes in the incubator. The stained cells are then examined using confocal laser scanning microscopy (CLSM) (LSM 780, Carl Zeiss) to track the localization and accumulation of free DOX, the DOX fluorescent signal of Comparative Example or Example 1, and to determine the cell regulation process of free DOX, Comparative example and Example 1 in the RAW264.7 cells.

RAW264.7 cells [2] = assay: Cytotoxicity on Mφ; assay type: cell-based, murine; settings: different DOX concentrations, 24 hours
Procedure: The capacity of Mφ as a hitchhiking vehicle is strongly correlated with their viability following the uptake of drug-encapsulated particles. Therefore, the cytotoxicity of Example 1 on Mφ are further evaluated. The RAW264.7 cells are incubated with Comparative Example or Example 1 including different DOX concentrations for 24 hours, and the RAW264.7 cells treated with the same concentration of free DOX are used as Control (represents as “DOX”).

orthotopic PDAC mice = assay: Antitumor efficacy of different treatments; assay type: in vivo
Source text: To evaluate the antitumor efficacy of different treatments, the orthotopic PDAC mice are randomly assigned to the following groups: untreated control group (hereinafter referred to as “Control”), orally administered β-glucan group (hereinafter referred to as “βGlus”), intravenous injected DOX group (hereinafter referred to as “DOX”), orally administered Comparative Example group (hereinafter referred to as “Comparative Example”), and orally administered Example 1 group (hereinafter referred to as “Example 1”). In the groups of DOX, Comparative Example and Example 1, the DOX content of each dose is 10 mg/kg, while in the groups of βGlus and Example 1, the content of β-glucan of each dose is 40 mg/kg. The body weight changes of the orthotopic PDAC mice are recorded every other day. On day 21, the orthotopic PDAC mice are euthanized and their tumors are retrieved for analysis.

COc1cccc2c1C(=O)c1c(O)c3c(c(O)c1C2=O)C[C@@](O)(C(=O)CO)C[C@@H]3O[C@H]1C[C@H](N)[C@H](O)[C@H](C)O1 [DOX, doxorubicin]
accumulation of DOX fluorescence in the cell nuclei (RAW264.7 cells [1]): accumulated in their nuclei
cell viability (RAW264.7 cells [2]): decreases substantially in a dose-dependent manner
tumor volume (orthotopic PDAC mice; day 21, three doses, DOX 10 mg/kg, β-glucan 40 mg/kg per dose, compared with Control): substantially reduces tumor volumes
body weight (orthotopic PDAC mice; intravenous DOX 10 mg/kg per dose, P<0.05): serious loss of body weight

Source: US20240197911A1, “Oral Pharmaceutical Composition, Method for Fabricating Thereof, and Kit for Treating Cancer” (National Tsing Hua University, priority 2022, published 2024)
